# Test results from patent US4861795A, “Treatment of conditions requiring enhanced oxygen availability to mammalian tissues” (Rorer Pharmaceutical Corporation, priority 1988, dated 1989).
# Structures can show the parent of a compound that is named as a salt.
# Test system: oxygen-dissociation curve in whole human blood
# Assay: not given
# Settings: in vitro, increase of 2,3-DPG; cited from earlier work
row,SMILES,displacement of the oxygen-dissociation curve (in words)
1,"O=C(O)C(COP(=O)(O)O)OP(=O)(O)O (centres unmarked) [2,3-DPG, 2,3-diphosphoglyceric acid]",displaces in vitro the oxygen-dissociation curve to the right of normal

# Molecular target: T1, 2,3-DPG phosphatase (Homo sapiens, UniProt P07738)
# T1 sequence (P07738 1-259): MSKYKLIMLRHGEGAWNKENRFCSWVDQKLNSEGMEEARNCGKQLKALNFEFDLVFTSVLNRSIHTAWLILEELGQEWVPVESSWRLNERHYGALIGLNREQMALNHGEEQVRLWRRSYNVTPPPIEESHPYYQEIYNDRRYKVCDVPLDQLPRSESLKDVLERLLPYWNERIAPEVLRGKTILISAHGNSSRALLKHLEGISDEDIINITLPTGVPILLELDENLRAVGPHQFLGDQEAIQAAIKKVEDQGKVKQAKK
# Assay: 2,3-Diphosphoglycerate Phosphatase Assay (radiochemical, release of inorganic 32P-phosphate from 2,3-DPG)
# Format: biochemical
# Settings: 100 μM compound; pH 7.5, 110 μM 32P-labeled 2,3-DPG, 5 μM phosphoglycolate, 37° C., 20 minutes
# Method: 2,3-Diphosphoglycerate Phosphatase Assay The activity of 2,3-DPG phosphatase was determined radiochemically using a method based on Rose et al. (J. Biol. Chem. 245, 3232-3241, 1970). In this method the activity of the phosphatase is measured by determining the release of inorganic phosphate from the substrate, 2,3-DPG. The test compounds were dissolved in dimethyl sulfoxide at 100 times the final concentration used and then added to the reaction mixture at the beginning of the assay period. In the control experiments equivalent concentration of dimethyl sulfoxide was used. […] At the end of incubation the reaction was stopped by the addition of 0.1 ml of 15% w/v trichloroacetic acid and the sample was centrifuged (Eppendorf microfuge, Model 5413) in order to remove protein precipitates. Then 0.2 ml of the supernatant was withdrawn and mixed with 0.1 ml of 8 M sulfuric acid, 0.1 ml of 5% w/v ammonium molybdate and 0.6 ml of water. The mixture then was extracted with 2 ml of isobutanol/benzene (1:1,v/v) and then centrifuged to effect separation of the phases. 1 ml of the organic phase containing the extracted ^32 p-phosphate was counted in a scintillation counter (Beckman, Model LS 8,000) using a program for ^32 p radioactivity. The activity of the enzyme was expressed as number of mole phosphate release per minute. From the data obtained by employing the test method above-described, the percent inhibition of 2,3-DPG phosphatase was calculated and is shown in Table II.
row,SMILES,inhibition at 100 µM
1,"O=C(O)c1cc2cccc(OCc3ccccc3)c2cc1OC(=O)C(Cl)Cl [y, 5-benzyloxy-3-dichloroacetoxy-2-naphthoic acid]",81.9%
2,"O=C(O)c1cc2cccc(OCc3ccc(Cl)c(Cl)c3)c2cc1O [q, 5-(3,4-dichlorobenzyloxy)-3-hydroxy-2-naphthoic acid]",97.7%
3,"COc1cccc2cc(C(=O)O)c(O)cc12 [a, 5-methoxy-3-hydroxy-2-naphthoic acid]",79.2%
4,"CCOC(=O)c1cc2cccc(OCCN3CCCC3)c2cc1OCCN1CCCC1 [p, ethyl 3,5-bis[2-(1-pyrrolidinyl)ethoxy]-2-naphthoate monohydrochloride]",99.2%
5,"O=C(O)c1cc2cccc(OCc3cccc(C(F)(F)F)c3)c2cc1O [c, 5-(3-trifluoromethylbenzyloxy)-3-hydroxy-2-naphthoic acid]",94.3%
6,"O=C(O)c1cc2cccc(OCCOc3ccccc3)c2cc1O [d, 5-phenoxyethoxy-3-hydroxy-2-naphthoic acid]",92.5%
7,"O=C(O)c1cc2cccc(OCCCc3ccccc3)c2cc1O [r, 3-hydroxy-5-(3-phenylpropoxy)-2-naphthoic acid]",97.1%
8,"CC(=O)Oc1cccc2cc(C(=O)O)c(O)cc12 [g, 5-acetoxy-3-hydroxy-2-naphthoic acid]",89.6%
9,"O=C(O)c1cc2cccc(OCc3ccccc3)c2cc1O [h, 5-benzyloxy-3-hydroxy-2-naphthoic acid]",74%
10,"O=C(O)c1cc2cccc(OCCc3ccccc3)c2cc1O [b, 5-phenetoxy-3-hydroxy-2-naphthoic acid]",94.3%

# Further lines, results first:
row,inhibition at 100 µM,SMILES
1,86.9%,"O=C(O)c1cc2cccc(OCCCc3ccc(Cl)c(Cl)c3)c2cc1O [u, 5-[3-(3,4-dichlorophenyl)-propoxy]-3-hydroxy-2-naphthoic acid]"
2,95.6%,"O=C(O)c1cc2cccc(OCc3ccc(Cl)cc3Cl)c2cc1O [s, 5-(2,4-dichlorobenzyloxy)-3-hydroxy-2-naphthoic acid]"
3,93.6%,"O=C(O)c1cc2cccc(OCc3ccc(Cl)c(Cl)c3)c2cc1OCc1ccc(Cl)c(Cl)c1 [w, 3,5-bis-(3,4-dichlorobenzyloxy)-2-naphthoic acid]"
4,94.2%,"O=C(O)c1cc2cccc(OCc3c(Cl)cccc3Cl)c2cc1O [t, 5-(2,6-dichlorobenzyloxy)-3-hydroxy-2-naphthoic acid]"
5,100%,"C=CCCCCCCCCCOc1cccc2cc(C(=O)O)c(O)cc12 [x, 3-hydroxy-5(undecenyloxy)-2-naphthoic acid]"
6,89%,"O=C(O)c1cc2cccc(OCc3ccc(F)cc3)c2cc1O [v, 5-(4-fluorobenzyloxy)-3-hydroxy-2-naphthoic acid]"
